Laboratory results: PMC11762167, “G Protein-Coupled Receptor 17 Inhibits Glucagon-like Peptide-1 Secretion via a Gi/o-Dependent Mechanism in Enteroendocrine Cells” (Biomolecules, 2024)

Biological target: hGPR17L (Homo sapiens, UniProt Q13304)
Assay: Endpoint cAMP (HTRF) in GLUTag cells expressing hGPR17L
Format: cell-based
Parameters: host or cells: GLUTag cells (murine enteroendocrine line), adenoviral transduction; Mean Diff. of cAMP, MDL29,951 vs FSK alone (Tukey): unit not given here
Conditions: for Predicted (LS) mean diff.: Fig 2B, Forskolin; for Mean Diff. of cAMP, MDL29,951 vs FSK alone (Tukey): hGPR17L
Experimental: GLUTag cells were maintained in Dulbecco’s Modified Eagle Medium (DMEM) supplemented with 10% fetal bovine serum and 1% penicillin–streptomycin in a humidified incubator at 37 °C and 5% CO2. For adenovirus transduction, GLUTag cells were seeded into poly-D-lysine coated 96-well plates or 4-chamber slides. The next day, cells were transduced with adenoviruses (100–1250 viral particles per cell at time of seeding) as indicated. After 24–30 h, adenovirus-containing media was changed to serum-free growth media for overnight serum starvation. The following day, GLUTag cells were used for cAMP or calcium signaling assays, GLP-1 secretion assays, or immunostaining and imaging.
Endpoint cAMP measurements were conducted as follows. GLUTag cells were seeded into poly-D-lysine-coated 96-well plates and transduced with adenovirus as specified above and then tested for cAMP signaling. Medium was removed and cells were washed with cAMP stimulation buffer (Hanks’ balanced salt solution (HBSS), 20 mM HEPES, pH 7.4) and then incubated in cAMP stimulation buffer for 30 min at 37 °C and 5% CO2. Cells were then treated for 30 min with agonist and forskolin in the presence of 500 µM IBMX at 37 °C and 5% CO2. Stimulation buffer was then decanted, and cAMP lysis buffer (50 mM HEPES, 10 mM CaCl2, 0.35% Triton X-100, and 500 µM IBMX) was added and shaken at 700 rpm for 1 h. Lysate was transferred to a 384-well plate, and the cAMP levels were quantified using the Cisbio HTRF cAMP (Gi kit; Revvity, Waltham, MA, USA) according to the manufacturer’s protocol.

Sequence of hGPR17L (Q13304 whole entry): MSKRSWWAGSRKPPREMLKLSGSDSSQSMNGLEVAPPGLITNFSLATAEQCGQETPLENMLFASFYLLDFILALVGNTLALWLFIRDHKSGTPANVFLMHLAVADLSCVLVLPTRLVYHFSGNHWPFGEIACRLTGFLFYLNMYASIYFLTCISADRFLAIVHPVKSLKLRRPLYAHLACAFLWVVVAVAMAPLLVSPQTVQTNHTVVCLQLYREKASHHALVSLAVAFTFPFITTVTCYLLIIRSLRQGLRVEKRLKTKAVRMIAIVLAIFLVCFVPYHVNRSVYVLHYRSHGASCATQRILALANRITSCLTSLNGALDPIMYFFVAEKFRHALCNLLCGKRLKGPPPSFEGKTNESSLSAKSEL

In the case of `O=C(O)CCc1c(C(=O)O)[nH]c2cc(Cl)cc(Cl)c12` [MDL29,951], the “Predicted (LS) mean diff.” value (log [MDL29,951] (M) -4.0 vs. Vehicle, +Vehicle) is reported as -12.1, the “Predicted (LS) mean diff.” value (log [MDL29,951] (M) -4.6 vs. Vehicle, +100 nM YM-254890) is reported as -35.09 and the “Predicted (LS) mean diff.” value (log [MDL29,951] (M) -4.6 vs. Vehicle, +100 ng/mL PTX) is reported as 20.2. For the same compound, the “Predicted (LS) mean diff.” value (log [MDL29,951] (M) -4.6 vs. Vehicle, +Vehicle) was -15.6, the “Predicted (LS) mean diff.” value (log [MDL29,951] (M) -5.2 vs. Vehicle, +100 nM YM-254890) was -39.39 and the “Predicted (LS) mean diff.” value (log [MDL29,951] (M) -5.2 vs. Vehicle, +100 ng/mL PTX) was 8.85. For the same compound, the “Predicted (LS) mean diff.” value (log [MDL29,951] (M) -5.2 vs. Vehicle, +Vehicle) was -22.36, the “Predicted (LS) mean diff.” value (log [MDL29,951] (M) -5.8 vs. Vehicle, +100 nM YM-254890) was -44.26 and the “Predicted (LS) mean diff.” value (log [MDL29,951] (M) -5.8 vs. Vehicle, +100 ng/mL PTX) was -1.585. For the same compound, the “Predicted (LS) mean diff.” value (log [MDL29,951] (M) -5.8 vs. Vehicle, +Vehicle) was -32.92, the “Predicted (LS) mean diff.” value (log [MDL29,951] (M) -6.4 vs. Vehicle, +100 nM YM-254890) was -39.29 and the “Predicted (LS) mean diff.” value (log [MDL29,951] (M) -6.4 vs. Vehicle, +100 ng/mL PTX) was -7.715. The “Predicted (LS) mean diff.” value (log [MDL29,951] (M) -6.4 vs. Vehicle, +Vehicle) was -33.45, the “Predicted (LS) mean diff.” value (log [MDL29,951] (M) -7.0 vs. Vehicle, +100 nM YM-254890) was -30.32 and the “Predicted (LS) mean diff.” value (log [MDL29,951] (M) -7.0 vs. Vehicle, +100 ng/mL PTX) was -2.207. For the same compound, the “Predicted (LS) mean diff.” value (log [MDL29,951] (M) -7.0 vs. Vehicle, +Vehicle) was -27.4, the “Predicted (LS) mean diff.” value (log [MDL29,951] (M) -7.6 vs. Vehicle, +100 nM YM-254890) was -16.56 and the “Predicted (LS) mean diff.” value (log [MDL29,951] (M) -7.6 vs. Vehicle, +100 ng/mL PTX) was -4.54. For the same compound, the “Predicted (LS) mean diff.” value (log [MDL29,951] (M) -7.6 vs. Vehicle, +Vehicle) was -8.48, the “Predicted (LS) mean diff.” value (log [MDL29,951] (M) -8.2 vs. Vehicle, +100 nM YM-254890) was -9.253 and the “Predicted (LS) mean diff.” value (log [MDL29,951] (M) -8.2 vs. Vehicle, +100 ng/mL PTX) was 0.26. The “Predicted (LS) mean diff.” value (log [MDL29,951] (M) -8.2 vs. Vehicle, +Vehicle) was 3.753, the “Predicted (LS) mean diff.” value (log [MDL29,951] (M) -8.8 vs. Vehicle, +100 nM YM-254890) was -3.55 and the “Predicted (LS) mean diff.” value (log [MDL29,951] (M) -8.8 vs. Vehicle, +100 ng/mL PTX) was -5.335. The “Predicted (LS) mean diff.” value (log [MDL29,951] (M) -8.8 vs. Vehicle, +Vehicle) was 6.603, the “Predicted (LS) mean diff.” value (log [MDL29,951] (M) -9.4 vs. Vehicle, +100 nM YM-254890) was 1.64 and the “Predicted (LS) mean diff.” value (log [MDL29,951] (M) -9.4 vs. Vehicle, +100 ng/mL PTX) was 2.945. The “Predicted (LS) mean diff.” value (log [MDL29,951] (M) -9.4 vs. Vehicle, +Vehicle) was 8.423, the “maximum inhibition of forskolin-stimulated cAMP” value (at 390 nM MDL29,951, 10 µM forskolin) was 37 ± 5.1% and the “Mean Diff. of cAMP, MDL29,951 vs FSK alone (Tukey)” value (log [MDL29,951] (M) -4.0) was -0.306. For the same compound, the “Mean Diff. of cAMP, MDL29,951 vs FSK alone (Tukey)” value (log [MDL29,951] (M) -4.6) was -0.593, the “Mean Diff. of cAMP, MDL29,951 vs FSK alone (Tukey)” value (log [MDL29,951] (M) -5.2) was -1.138 and the “Mean Diff. of cAMP, MDL29,951 vs FSK alone (Tukey)” value (log [MDL29,951] (M) -5.8) was -1.598. The “Mean Diff. of cAMP, MDL29,951 vs FSK alone (Tukey)” value (log [MDL29,951] (M) -6.4) was -1.654, the “Mean Diff. of cAMP, MDL29,951 vs FSK alone (Tukey)” value (log [MDL29,951] (M) -7.0) was -1.376 and the “Mean Diff. of cAMP, MDL29,951 vs FSK alone (Tukey)” value (log [MDL29,951] (M) -7.6) was -0.7263. The “Mean Diff. of cAMP, MDL29,951 vs FSK alone (Tukey)” value (log [MDL29,951] (M) -8.2) was -0.237, the “Mean Diff. of cAMP, MDL29,951 vs FSK alone (Tukey)” value (log [MDL29,951] (M) -8.8) was -0.04325 and the “Mean Diff. of cAMP, MDL29,951 vs FSK alone (Tukey)” value (log [MDL29,951] (M) -9.4) was -0.0985. For the same compound, the “Mean Diff. (Tukey's multiple comparisons test), cAMP, Row 10 vs. Row 11” value (hGPR17L-WT (1250), log [MDL29,951] (M) -4.0 vs. Vehicle, Forskolin stimulation, Figure 4B) was -9.193, the “Mean Diff. (Tukey's multiple comparisons test), cAMP, Row 9 vs. Row 11” value (hGPR17L-WT (1250), log [MDL29,951] (M) -4.6 vs. Vehicle, Forskolin stimulation, Figure 4B) was -17.14 and the “Mean Diff. (Tukey's multiple comparisons test), cAMP, Row 8 vs. Row 11” value (hGPR17L-WT (1250), log [MDL29,951] (M) -5.2 vs. Vehicle, Forskolin stimulation, Figure 4B) was -27.93. For the same compound, the “Mean Diff. (Tukey's multiple comparisons test), cAMP, Row 7 vs. Row 11” value (hGPR17L-WT (1250), log [MDL29,951] (M) -5.8 vs. Vehicle, Forskolin stimulation, Figure 4B) was -39.19, the “Mean Diff. (Tukey's multiple comparisons test), cAMP, Row 6 vs. Row 11” value (hGPR17L-WT (1250), log [MDL29,951] (M) -6.4 vs. Vehicle, Forskolin stimulation, Figure 4B) was -41.54 and the “Mean Diff. (Tukey's multiple comparisons test), cAMP, Row 5 vs. Row 11” value (hGPR17L-WT (1250), log [MDL29,951] (M) -7.0 vs. Vehicle, Forskolin stimulation, Figure 4B) was -35.32. For the same compound, the “Mean Diff. (Tukey's multiple comparisons test), cAMP, Row 4 vs. Row 11” value (hGPR17L-WT (1250), log [MDL29,951] (M) -7.6 vs. Vehicle, Forskolin stimulation, Figure 4B) was -21.64, the “Mean Diff. (Tukey's multiple comparisons test), cAMP, Row 3 vs. Row 11” value (hGPR17L-WT (1250), log [MDL29,951] (M) -8.2 vs. Vehicle, Forskolin stimulation, Figure 4B) was -11.12 and the “Mean Diff. (Tukey's multiple comparisons test), cAMP, Row 2 vs. Row 11” value (hGPR17L-WT (1250), log [MDL29,951] (M) -8.8 vs. Vehicle, Forskolin stimulation, Figure 4B) was -5.06. For the same compound, the “Mean Diff. (Tukey's multiple comparisons test), cAMP, Row 1 vs. Row 11” value (hGPR17L-WT (1250), log [MDL29,951] (M) -9.4 vs. Vehicle, Forskolin stimulation, Figure 4B) was -7.193.
